Patent publication US20170073445A1, “PHOTOPOLYMERIZABLE COMPOSITION, PHOTOPOLYMERIZABLE INK, COMPOSITION CONTAINER, IMAGE OR CURED PRODUCT FORMING METHOD, IMAGE OR CURED PRODUCT FORMING DEVICE, AND IMAGE OF CURED PRODUCT” (priority 2014, published 2017)

Experiments:
[1] = in vivo; cited from earlier work
[2] = tested on: female mice; assay: Skin sensitization test, local lymph node assay (LLNA), SI value; format: in vivo; conditions: test substance 50.0 w/v % in acetone:olive oil 4:1, applied to both auricles once a day for three days
From the text: (1) A compound having a Stimulation Index (SI value) of less than 3, where the Stimulation Index indicates the level of sensitization as measured by a skin sensitization test based on the LLNA (Local Lymph Node Assay).
Regarding the above (1), the compound having a SI value of less than 3 is considered as being negative for skin sensitization as described in literatures, for example, “Functional Material” (Kino Zairyou) September, 2005, Vol. 25, No. 9, p. 55. The lower Si value means lower skin sensitization. In the present invention, therefore, a photopolymerizable monomer having lower SI value is preferably used. The SI value is preferably less than 3, more preferably 2 or less, and even more preferably 1.6 or less.
According to the skin sensitization test of local lymph node assay (LLNA), the SI value was measured in the following manner. […]
Based on the body weights measured 2 days before the initiation of sensitization, they were categorized into 2 groups (4 mice/group) by the body weight stratified random sampling method so that the body weight of each individual was within plus or minus 20%. […]
About 24 hours after the administration of BrdU, the used animals were allowed to undergo euthanasia, and their auricular lymph nodes were sampled. […] Also, the average of the weights of the auricular lymph nodes and the standard error thereof were calculated for each group. […]

[3] = Viscosity by cone-plate rotor viscometer (25° C. or 60° C.); format: physicochemical; conditions: monomer per se
Procedure: Note that, a viscosity of the low viscous monofunctional monomer per se is preferably 3 mPa·s or less at 25° C., more preferably about 1 mPa·s or less at 25° C. The viscosity can be measured by means of a cone-plate rotor viscometer, VISCOMETER TV-22, manufactured by Toki Sangyo Co., Ltd., using a corn rotor (1° 34′×R24) at the rotational speed of 50 rpm, with setting the temperature of constant-temperature circulating water to 25° C.
The viscosity is measured by means of a cone-plate rotor viscometer, VISCOMETER TV-22, manufactured by Toki Sangyo Co., Ltd., using a corn rotor (1° 34′×R24) at the rotational speed of 50 rpm, with setting the temperature of constant-temperature circulating water to 25° C. or 60° C. As for the adjustment of the temperature of the circulating water, VISCOMATE VM-150III is used. […]
(A): t-butylmethacrylate, “Acryester TB” manufactured by MITSUBISHI RAYON CO., LTD. (negative), evaluated with the literature (test method: maximization method, viscosity at 25° C.: 0.9 mPa·s). The viscosity was measured by means of a cone-plate rotor viscometer, VISCOMETER TV-22, manufactured by Toki Sangyo Co., Ltd., using a corn rotor (1° 34′×R24) at the rotational speed of 50 rpm, with setting the temperature of constant-temperature circulating water to 25° C.

viscosity at 25° C. [3] [mPa·s]	Molecule	SI value (Stimulation Index) in the LLNA test [2]	other results
	O=C(c1ccccc1)C1(O)CCCCC1 [1-hydroxy-cyclohexylphenylketone]		Skin sensitization, evaluated with MSDS [1]: no
	C=C(C)C(=O)OCC(CO)OC(=O)C(=C)C (centres unmarked) [glycerol dimethacrylate]	1.2	
0.9	C=C(C)C(=O)OC(C)(C)C [t-butylmethacrylate]		
1	C=C(C)C(=O)OCCCCC [n-pentyl methacrylate]		
	tricyclodecane dimethanol dimethacrylate	1.3	
